Patent publication EP4813992A1, “POLYARYL DERIVATIVE AND USE THEREOF” (Hangzhou HealZen Therapeutics Co., Ltd., priority 2023, dated 2025)

What was measured:
HPK1 kinase [1] = biological target: T1, HPK1 kinase (Homo sapiens, UniProt Q92918); assay: Lantha screen assay, inhibitory effect on HPK1 kinase; format: biochemical; details: initial compound concentration 1 µM
Experimental: The Lantha screen assay is used to evaluate the inhibitory effect of the compounds on HPK1 kinase. • a) Kinase buffer: 50 mM HEPES (pH 7.5), 10 mM MgCl2, 4 mM DTT, 0.01% Tween-20, 0.01% BSA. • b) Compound Preparation: The compound is diluted with DMSO, and the initial detection concentration of the compound is 1 µM and is diluted to the corresponding concentration. • c) Kinase response and termination: A kinase solution is prepared by adding kinase buffer, the kinase solution and the compound are added to the test plate to be incubated at room temperature for 10 minutes. Fluorescein-PKC and ATP are added to the kinase buffer to form a substrate solution, and 5 µl of the substrate solution is added to the test plate to start the reaction to be incubated at room temperature for 90 minutes; then, 10 µl of a mixture of antibody and EDTA is added to terminate the reaction to be incubated at room temperature for 60 minutes. • d) The date is read by Envision instrument to plot a curve with the Log concentration of the inhibitor as the X-axis and the inhibition rate as the Y-axis, and then the formula Y=Bottom + (Top-Bottom)/(1+(IC50/X)^HillSlope) is used to obtain IC50. Table 1 Inhibitory activity the compounds of the invention on HPK1 kinase

HPK1 kinase [2] = biological target: T1, HPK1 kinase; assay: Activity of degrading HPK1 in Jurkat cells (Western blot, 24 h); format: cell-based; set-up: endogenous in cells; host or cells: Jurkat; details: HPK1 protein degradation
Experimental: The adjusted samples are added to 5*loading buffer, boiled at 100°C for 10 minutes, and then the samples are loaded after the temperature is returned to room temperature. • 4) Detection of samples: Electrophoresis is performed using 10% SDS-PAGE with a sample loading volume of 8 µL/well. After the membrane transfer is completed, the samples are blocked with 5% BSA at room temperature for 1 h. After the residual blocking solution is washed away with TBST, HPK1 and GAPDH antibodies are added for incubation overnight at 4°C. Washing is performed 3 more times with TBST on a shaker, 10 minutes each time. After washing is completed, the secondary antibody is added for incubation at room temperature for 1 hour; then, washing is performed 3 more times with TBST on a shaker, 10 minutes each time; finally, ECL exposure solution is used to develop and image the bands to detect changes in HPK1 protein.

T1 sequence (Q92918 whole entry): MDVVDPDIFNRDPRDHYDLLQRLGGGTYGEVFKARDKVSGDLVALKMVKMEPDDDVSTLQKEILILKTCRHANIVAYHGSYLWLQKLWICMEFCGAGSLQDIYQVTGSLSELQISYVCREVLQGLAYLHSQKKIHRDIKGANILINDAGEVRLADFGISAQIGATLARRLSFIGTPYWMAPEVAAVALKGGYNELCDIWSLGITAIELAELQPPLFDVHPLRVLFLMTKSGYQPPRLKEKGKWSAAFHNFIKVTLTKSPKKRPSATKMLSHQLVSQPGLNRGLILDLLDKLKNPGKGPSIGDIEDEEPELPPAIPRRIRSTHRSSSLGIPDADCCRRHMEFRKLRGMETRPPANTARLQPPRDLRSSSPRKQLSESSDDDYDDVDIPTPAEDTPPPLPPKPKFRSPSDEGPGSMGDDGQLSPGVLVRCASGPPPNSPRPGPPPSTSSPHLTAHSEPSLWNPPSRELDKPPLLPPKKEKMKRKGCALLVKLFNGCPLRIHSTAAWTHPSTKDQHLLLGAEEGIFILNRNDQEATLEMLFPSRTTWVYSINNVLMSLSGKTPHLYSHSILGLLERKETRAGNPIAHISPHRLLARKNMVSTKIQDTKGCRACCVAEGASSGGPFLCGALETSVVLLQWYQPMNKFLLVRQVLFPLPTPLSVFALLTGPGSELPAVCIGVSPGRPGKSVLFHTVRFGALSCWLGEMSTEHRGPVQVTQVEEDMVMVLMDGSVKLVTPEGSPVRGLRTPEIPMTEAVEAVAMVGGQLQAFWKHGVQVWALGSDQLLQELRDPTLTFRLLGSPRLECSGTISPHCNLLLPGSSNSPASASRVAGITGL

SMILES | IC50 (HPK1 kinase [1]) | DC50 (HPK1 kinase [2]; class symbols) | DC50 (HPK1 kinase [2]; numeric values)
Cc1cc(-c2cnc3[nH]cc(-c4ccc(C(=O)N(C)C)cc4)c3n2)cc(C)c1C1=CCN(CC2CN(c3ccc(C4CCC(=O)NC4=O)c(F)c3)C2)CC1 (stereo not drawn) [compound 003] | < 0.01 µM | < 0.01 µM | –
Cc1cc(-c2cnc3[nH]cc(-c4cnc5ccc(C#N)cn45)c3n2)cc(C)c1C1=CCN(CC2CN(c3ccc(N4CCC(=O)NC4=O)c(F)c3)C2)CC1 [compound 166] | < 0.01 µM | < 0.01 µM | –
Cc1cc(-c2cnc3[nH]cc(-c4c(C)noc4C)c3n2)cc(C)c1C1=CCN(CC2CN(c3ccc(N4CCC(=O)NC4=O)c(F)c3)C2)CC1 [compound 155] | < 0.01 µM | < 0.01 µM | –
Cc1cc(-c2cnc3[nH]cc(-c4cncs4)c3n2)cc(C)c1C1=CCN(CC2CN(c3ccc(N4CCC(=O)NC4=O)c(F)c3)C2)CC1 [compound 153] | < 0.01 µM | < 0.01 µM | –
Cc1cc(-c2cnc3[nH]cc(-c4cnco4)c3n2)cc(C)c1C1=CCN(CC2CN(c3ccc(N4CCC(=O)NC4=O)c(F)c3)C2)CC1 [compound 169] | < 0.01 µM | < 0.01 µM | –
Cc1cc(-c2cnc3[nH]cc(-n4cc(C#N)cn4)c3n2)cc(C)c1C1=CCN(CC2CN(c3ccc(N4CCC(=O)NC4=O)c(F)c3)C2)CC1 [compound 161] | < 0.01 µM | < 0.01 µM | –
Cc1cc(N2CC(CN3CC=C(c4c(C)cc(-c5cnc6[nH]cc(-c7cnc8c(c7)N(C)CCO8)c6n5)cc4C)CC3)C2)ccc1N1CCC(=O)NC1=O [compound 132] | < 0.01 µM | < 0.01 µM | –
CCN1CCC(n2cc(-c3c[nH]c4ncc(-c5cc(C)c(C6=CCN(CC7CN(c8ccc(N9CCC(=O)NC9=O)c(F)c8)C7)CC6)c(C)c5)nc34)cn2)CC1 [compound 108] | < 0.01 µM | – | 0.0223 µM
Cc1cc(-c2c[nH]c3ncc(-c4cc(C)c(C5=CCN(CC6CN(c7ccc(C(=O)NC8CCC(=O)NC8=O)cc7)C6)CC5)c(C)c4)nc23)ccc1C(=O)N(C)C (stereo not drawn) [compound 028] | < 0.01 µM | < 0.01 µM | –
Cc1cc(-c2cnc3[nH]cc(-c4ccc(C(=O)N(C)C)cc4)c3n2)cc(C)c1C1=CCN(CC2CN(c3ccc(N4CCC(=O)NC4=O)cc3)C2)CC1 [compound 008] | < 0.01 µM | < 0.01 µM | –
Cc1cc(-c2cnc3[nH]cc(-c4ccc(C(=O)N(C)C)cc4)c3c2)cc(C)c1C1=CCN(CC2CN(c3ccc(N4CCC(=O)NC4=O)c(Cl)c3)C2)CC1 [compound 142] | < 0.01 µM | < 0.01 µM | –
Cc1cnn(-c2c[nH]c3ncc(-c4cc(C)c(C5=CCN(CC6CN(c7ccc(N8CCC(=O)NC8=O)c(F)c7)C6)CC5)c(C)c4)nc23)c1 [compound 158] | < 0.01 µM | < 0.01 µM | –
Cc1cc(-c2cnc3[nH]cc(-c4cnsc4)c3n2)cc(C)c1C1=CCN(CC2CN(c3ccc(N4CCC(=O)NC4=O)c(F)c3)C2)CC1 [compound 154] | < 0.01 µM | < 0.01 µM | –
Cc1cc(-c2cnc3[nH]cc(-c4ccc(C(=O)N(C)C)cc4)c3n2)cc(C)c1C1=CCN(C2CC3(CCN(c4ccc(N5CCC(=O)NC5=O)c(F)c4)C3)C2)CC1 (stereo not drawn) [compound 117] | < 0.01 µM | < 0.01 µM | –
Cc1cc(-c2cnc3[nH]cc(-c4ccc(C(=O)N(C)C)cc4)c3n2)cc(C)c1C1=CCN(CC2CN(c3cc(F)c(N4CCC(=O)NC4=O)c(F)c3)C2)CC1 [compound 141] | – | < 0.01 µM | –
Cc1ccc(C(=O)N2CC(CN3CC=C(c4c(C)cc(-c5cnc6[nH]cc(-c7cnc8c(c7C)NCCO8)c6n5)cc4C)CC3)C2)cc1N1CCC(=O)NC1=O [compound 069] | < 0.01 µM | – | –
COc1ccc(C(=O)N2CC(CN3CC=C(c4c(C)cc(-c5cnc6[nH]cc(-c7ccc(C(=O)N(C)C)cc7)c6n5)cc4C)CC3)C2)cc1N1CCC(=O)NC1=O [compound 001] | < 0.01 µM | – | –
CN(C)C(=O)c1ccc(-c2c[nH]c3ncc(-c4cnc(C5=CCN(CC6CN(c7ccc(C(=O)NC8CCC(=O)NC8=O)cn7)C6)CC5)c(F)c4)nc23)cc1 (stereo not drawn) [compound 054] | < 0.01 µM | – | –
Cc1cc(N2CC3(CC(N4CC=C(c5c(C)cc(-c6cnc7[nH]cc(-c8ccc(C(=O)N(C)C)cc8)c7n6)cc5C)CC4)C3)C2)ccc1N1CCC(=O)NC1=O [compound 034] | < 0.01 µM | – | –
